Literature values in patent US9474524B2, “Packaged antimicrobial medical device having improved shelf life and method of preparing same” (Ethicon, Inc., priority 2002, dated 2016).

Test system: S. aureus
Details: suitable growth medium; Bhargava, H. et al, American Journal of Infection Control, June 1996

SMILES: Oc1cc(Cl)ccc1Oc1ccc(Cl)cc1Cl [2,4,4′-trichloro-2′-hydroxydiphenyl ether]
- minimum inhibitory concentration (MIC) against S. aureus: 0.01 ppm
